Source: US8268293B2, “UV protection” (Merck Patent GmbH, priority 2005, dated 2012)

Key:
[1] = Oxidation in UV light: change in the UV spectrum on irradiation; format: physicochemical
Experimental: The curves stand for the unirradiated substance (exposed to 0 kJ/m^2), after irradiation for 15 min (exposure to 86 kJ/m^2), after irradiation for 65 min (exposure to 373 kJ/m^2), after irradiation for 235 min (exposure to 1349 kJ/m^2) and after irradiation for 405 min (exposure to 2325 kJ/m^2).

[2] = Oxidation in UV light in the presence of further antioxidants: UV/VIS spectrum of beta-carotene emulsions on irradiation

CCCCC(CC)COC(=O)C(Cc1cc(OC)c(O)c(OC)c1)C(=O)OCC(CC)CCCC (stereo not shown)
UV absorption in the UV-A region on irradiation with UV light ([1]; after irradiation for 65 min (373 kJ/m^2), xenon lamp 95.69 W/m^2, 290-400 nm, increases further on longer irradiation): significantly increased UV absorption | Emax of the UV-A absorption developed on irradiation ([1]; neat substance, after UV irradiation): 320-340 nm | effect on beta-carotene degradation in the emulsion on UV irradiation ([2]; emulsion with 0.5% beta-carotene and 4% compound vs emulsion without compound, irradiated 90 min, beta-carotene absorption at 440-480 nm): stabilises the beta-carotene | Emax of the absorption of the reaction product in the UV-A region ([2]; emulsion with 0.5% by weight beta-carotene and 4% by weight compound, irradiated 90 min (curve B)): 320-340 nm
